Measured values: PMC7012052, “Discovery of antimicrobial compounds targeting bacterial type FAD synthetases” (Journal of Enzyme Inhibition and Medicinal Chemistry, 2017)
In brackets after ≈: the same amount, converted by molar mass. Like-named read-outs stand apart in the source and are kept apart here.

Legend:
CaFADS RFK activity = target: T1, CaFADS RFK activity (Corynebacterium ammoniagenes, UniProt Q59263); assay: RFK activity of CaFADS in the presence of HTS hits (flavins separated by HPLC); assay type: biochemical; conditions: pH 7, read-out: % Residual RFK activity
T1 construct: Recombinant CaFADS was overexpressed in BL21 (DE3) E. coli cells and purified as previously described; made in house; host or cells: E. coli BL21 (DE3)
Procedure: (§1) Then, the RFK and FMNAT reactions were individually assayed in the presence of the HTS hits at 25 °C. Reaction mixtures contained 50 µM ATP, 5 µM RF, 0.4 µM CaFADS in 20 mM PIPES, pH 7.0, 0.8 mM MgCl2, when assaying the RFK activity, and 50 µM ATP, 10 µM FMN, 0.4 µM CaFADS in 20 mM PIPES, pH 7.0, 10 mM MgCl2 when measuring the FMNAT reaction. […] Finally, reactions were stopped by boiling the samples at 100 °C for 5 min, and the precipitated protein was eliminated through centrifugation. The transformation of RF into FMN or FAD was evaluated through flavins separation by HPLC, as previously described. […] When assaying the HTS hits against the FMNAT activity of SpnFADS, similar conditions were used but samples contained 3 mM sodium dithionite to maintain the flavin in its reduced state. Data were processed as previously reported. All the experiments were performed in triplicate.

CaFADS FMNAT activity = target: T2, CaFADS FMNAT activity (Corynebacterium ammoniagenes, UniProt Q59263); assay: FMNAT activity of CaFADS: residual activity, IC50, inhibition mechanism (HPLC); assay type: biochemical; conditions: for remaining activity at 250 µM: pH 7, read-out: % Residual FMNAT activity; for remaining activity at 50 µM: read-out: Residual activity (FMNAT); for Ki: global Lineweaver–Burk fit
T2 construct: Recombinant CaFADS was overexpressed in BL21 (DE3) E. coli cells and purified as previously described; made in house; host or cells: E. coli BL21 (DE3)
Procedure: as §1
(§2) Experiments were performed and analysed through HPLC as described above. Positive controls (without any hit compound) were included in every reaction set. DMSO concentration was kept at 2.5% in all samples. All the experiments were performed in triplicate.
All the experiments were carried out in 20 mM PIPES, 10 mM MgCl2, pH 7.0, 2.5% DMSO at 25 °C, being the final reaction volume 500 µl. The reactions were initiated by addition of CaFADS at a final concentration of ∼40 nM, followed by 1 min incubation. The flavin composition of the supernatant was analysed as previously described. All the experiments were performed in triplicate. The effect of the inhibitors on Km and Vmax was determined by fitting the data sets to the Michaelis–Menten model. Additionally, data were globally fit to Lineweaver–Burk equations for competitive, uncompetitive, non-competitive or mixed inhibition, yielding Ki, as well as Ki′ when applying, for each compound (Equations (1–4), respectively).

SpnFADS FMNAT activity = SpnFADS FMNAT activity (Streptococcus pneumoniae, UniProt A0A0H2UPY5); assay: biochemical; conditions: SpnFADS, 25 °C
Procedure: as §1, §2

SpnFADS RFK activity = SpnFADS RFK activity (Streptococcus pneumoniae, UniProt A0A0H2UPY5); assay: biochemical; conditions: for IC50: compounds assayed 0–100 μM, read-out: RFK activity IC50
Procedure: as §1, §2

[1] = system: C. ammoniagenes ATCC 6872; assay: MIC by resazurin microplate assay (broth microdilution); assay type: cell-based, Corynebacterium ammoniagenes; conditions: for MIC: Corynebacterium ammoniagenes, ATCC6872, 16 h
[2] = system: M. tuberculosis ATCC 27,294; assay: as above; assay type: cell-based, Mycobacterium tuberculosis; conditions: read-out: Minimal inhibitory concentration (MIC) M. tuberculosis
S. pneumoniae ATCC 49619 = assay: as above; assay type: cell-based, Streptococcus pneumoniae; conditions: read-out: Minimal inhibitory concentration (MIC) S. pneumoniae
CaFADS = target: T3, CaFADS (Corynebacterium ammoniagenes, UniProt Q59263); assay: Isothermal titration calorimetry (ITC) of hits binding to CaFADS; conditions: ITC 25 °C, for 24: Site 1–2
T3 construct: Recombinant CaFADS was overexpressed in BL21 (DE3) E. coli cells and purified as previously described; made in house; host or cells: E. coli BL21 (DE3)
Procedure: ITC experiments were performed to characterise the protein’s affinity for the selected compounds, as also the thermodynamic parameters that drive the interaction. Experiments were carried out in an AutoITC200 (MicroCal) thermostated at 25 °C. In these experiments, ∼400 µM of each compound were used to titrate ∼25 µM CaFADS contained in a 200 µL cell. However, when saturation of the protein was not reached, higher concentrations of compounds were employed. The titrations were performed by stepwise injections of the titrating compound. Up to 19 injections of 2 µl were added to the cell sample and mixed using a 1000 rpm stirrer syringe. The compounds and the protein were dissolved in 20 mM PIPES, pH 7.0, 10 mM MgCl2 and degassed prior to titration. DMSO was added to the protein and ligand samples, until reach a final concentration of 3%. The association constant (Ka), the enthalpy variation (ΔH) and the binding stoichiometry (N), were obtained through non-lineal regression of the data to a model for one or two independent binding sites, implemented in Origin 7.0 (OriginLab) as previously described[27]^,[29]. The entropic contribution (−TΔS), the Gibbs free energy (ΔG) and the dissociation constant (Kd) were obtained through essential thermodynamic equations.

[3] = 100 μM of each compound, n = 3, mean ± SD, read-out: FMNAT activity Res. activity
[4] = read-out: RFK activity Res. activity
[5] = read-out: Minimal inhibitory concentration (MIC) C. ammoniagenes
[6] = Mycobacterium tuberculosis, ATCC27, 144 h
[7] = Streptococcus pneumoniae, ATCC49619, 10 h
[8] = read-out: Minimal inhibitory concentration (MIC) C. ammoniagenes, assayed 0.125–64 μM, 16 h at 37 °C, BHI

Chain of SpnFADS FMNAT activity (A0A0H2UPY5 entry or part of it): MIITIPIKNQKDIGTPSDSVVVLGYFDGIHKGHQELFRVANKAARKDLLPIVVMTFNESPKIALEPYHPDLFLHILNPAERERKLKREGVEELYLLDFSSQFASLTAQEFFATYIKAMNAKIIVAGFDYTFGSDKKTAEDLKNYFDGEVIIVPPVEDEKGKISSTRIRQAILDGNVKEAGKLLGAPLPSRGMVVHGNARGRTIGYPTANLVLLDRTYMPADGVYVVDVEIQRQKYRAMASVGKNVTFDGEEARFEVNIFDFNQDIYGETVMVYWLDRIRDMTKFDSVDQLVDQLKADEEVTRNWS
Chain of SpnFADS RFK activity (A0A0H2UPY5 entry or part of it): as above
T1 sequence (Q59263 whole entry): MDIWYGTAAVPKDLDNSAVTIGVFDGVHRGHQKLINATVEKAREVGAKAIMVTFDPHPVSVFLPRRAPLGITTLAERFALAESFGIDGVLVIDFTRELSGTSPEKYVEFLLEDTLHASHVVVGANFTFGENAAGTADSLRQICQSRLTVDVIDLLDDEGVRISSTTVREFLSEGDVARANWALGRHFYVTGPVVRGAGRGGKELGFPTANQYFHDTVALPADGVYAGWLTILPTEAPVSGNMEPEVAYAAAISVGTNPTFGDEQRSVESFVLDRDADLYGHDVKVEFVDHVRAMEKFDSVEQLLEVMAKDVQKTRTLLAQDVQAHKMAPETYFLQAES
T2 sequence (Q59263 whole entry): as above
T3 sequence (Q59263 whole entry): as above

Row | Molecule | remaining activity at 250 µM (CaFADS RFK activity) [%] | IC50 (CaFADS FMNAT activity) [µM] | remaining activity at 250 µM (CaFADS FMNAT activity) [%] | remaining activity at 50 µM (CaFADS FMNAT activity) [%] | MIC [1, 5] [µM] | MIC [2, 6] [µM] | MIC (S. pneumoniae ATCC 49619; [7]) [µM] | MIC [1, 8] [µM] | other results
1 | Cc1c(Cl)cccc1Nc1ccccc1C(=O)O [HTS hit 2] | ≥ 75 | 8.9 ± 1 | ≤ 5 | 41.1 ± 5.2 | > 64 | > 64 | > 64 |  | remaining activity at 100 µM (SpnFADS FMNAT activity; [3]): 100 ± 12%; IC50 (SpnFADS RFK activity; SpnFADS, 25 °C): > 100 µM; remaining activity at 100 µM (SpnFADS RFK activity; [4]): 78 ± 10%
2 | O=C(O)c1cc(/N=N/c2ccc(S(=O)(=O)Nc3ccccn3)cc2)ccc1O [HTS hit 8, sulfasalazine] | ≥ 75 |  | 5 to 50 |  |  |  |  |  | 
3 | CCCCCCCCCCCCCCCC[N+](C)(C)CCN(Cc1ccc(OC)cc1)c1ncccn1 [HTS hit 9, thonzonium bromide] | ≤ 5 |  | ≤ 5 |  | 2 | 16 | 1 to 2 | < 2 | activity at 100 µM (SpnFADS FMNAT activity; [3]): 7 ± 1%; IC50 (SpnFADS FMNAT activity; compounds assayed 0–100 μM, read-out: FMNAT activity IC50): 78 ± 6 µM; activity at 100 µM (SpnFADS RFK activity; SpnFADS, 100 μM of each compound, 25 °C, n = 3, mean ± SD, read-out: RFK activity Res. activity): 0%; IC50 (SpnFADS RFK activity; SpnFADS, 25 °C): 6 ± 1 µM
4 | O=C(O)c1cccnc1Nc1cccc(C(F)(F)F)c1 [HTS hit 11] | ≥ 75 | 9 ± 1.3 | ≤ 5 | 34.6 ± 4.9 | > 64 | > 64 | > 64 |  | 
5 | CCc1oc2ccccc2c1C(=O)c1cc(Br)c(O)c(Br)c1 [HTS hit 17, benzbromarone] | ≥ 75 | 12.8 ± 3.4 | ≤ 5 | 33.5 ± 10.1 | 8 (≈ 3.39 µg/mL) | > 64 | > 64 | 2 to 16 (≈ 0.848 to 6.79 µg/mL) | 
6 | CN1CCCN=C1/C=C/c1cccc(O)c1 [HTS hit 19, oxantel pamoate] | ≥ 75 | 20.8 ± 2.6 | ≤ 5 | 43.3 ± 3.9 |  |  |  |  | 
7 | Cc1c(Nc2ncccc2C(=O)O)cccc1C(F)(F)F [HTS hit 31, flunixin meglumine] | ≥ 75 | 6.6 ± 0.6 | ≤ 5 | 24.5 ± 1.9 | 32 to 64 | > 64 | > 64 | > 64 | Inhibition mechanism (CaFADS FMNAT activity; CaFADS FMNAT, saturating ATP (regarding the FMN substrate)): Non-competitive; Inhibition mechanism (CaFADS FMNAT activity; CaFADS FMNAT, saturating FMN (regarding the ATP substrate)): Mixed; K'i (CaFADS FMNAT activity; CaFADS FMNAT, saturating FMN, varying ATP, binding to the CaFADS-ATP complex): 18.4 ± 4.0 µM; Ki (CaFADS FMNAT activity; CaFADS FMNAT, saturating ATP, varying FMN): 0.09 ± 0.03 µM; Ki (CaFADS FMNAT activity; CaFADS FMNAT, saturating FMN, varying ATP): 3.5 ± 1 µM; apparent kcat (CaFADS FMNAT activity; saturating ATP, varying FMN, inhibitor 1 μM): 0.41 ± 0.0483 s⁻¹; apparent kcat (CaFADS FMNAT activity; saturating ATP, varying FMN, inhibitor 4 μM): 0.302 ± 0.0233 s⁻¹; apparent kcat (CaFADS FMNAT activity; saturating ATP, varying FMN, inhibitor 5 μM): 0.107 ± 0.02 s⁻¹; apparent kcat (CaFADS FMNAT activity; saturating ATP, varying FMN, inhibitor 7 μM): 0.05 ± 0.0067 s⁻¹; apparent kcat (CaFADS FMNAT activity; saturating ATP, varying FMN, inhibitor 10 μM): 0.05 ± 0.0067 s⁻¹; apparent kcat (CaFADS FMNAT activity; saturating FMN, varying ATP, inhibitor 4 μM): 0.328 ± 0.0167 s⁻¹; apparent kcat (CaFADS FMNAT activity; saturating FMN, varying ATP, inhibitor 5 μM): 0.288 ± 0.0183 s⁻¹; apparent kcat (CaFADS FMNAT activity; saturating FMN, varying ATP, inhibitor 7 μM): 0.282 ± 0.01 s⁻¹; apparent kcat (CaFADS FMNAT activity; saturating FMN, varying ATP, inhibitor 10 μM): 0.255 ± 0.0217 s⁻¹; apparent kcat (CaFADS FMNAT activity; saturating FMN, varying ATP, inhibitor 12 μM): 0.23 ± 0.0167 s⁻¹; N (binding stoichiometry) (CaFADS; 3% DMSO): ≈ 1; ΔG (CaFADS; average value where N ≈ 2): -6.2 ± 0.6 kcal/mol; ΔH (CaFADS; average value where N ≈ 2): -7.2 ± 0.4 kcal/mol; −TΔS (CaFADS; average value where N ≈ 2): 1.1 ± 0.1 kcal/mol; Kd (CaFADS; Kd, 3% DMSO, average value for two hit molecules where N ≈ 2): 30.9 ± 2.8 µM
8 | CC/C(=C(/CC)c1ccc(O)cc1)c1ccc(O)cc1 [HTS hit 32, diethylstilbestrol] | 50 to 75 |  | 5 to 50 |  | 8 (≈ 2.15 µg/mL) | > 64 | 64 (≈ 17.2 µg/mL) | 2 to 16 (≈ 0.537 to 4.29 µg/mL) | 
9 | C/C=C(/C(=C/C)c1ccc(O)cc1)c1ccc(O)cc1 [HTS hit 35, dienestrol] | ≤ 5 |  | 5 to 50 |  | 16 to 32 (≈ 4.26 to 8.52 µg/mL) | > 64 | 64 (≈ 17 µg/mL) | 2 to 16 (≈ 0.533 to 4.26 µg/mL) | 
10 | O=C(O)CCc1nc(-c2ccccc2)c(-c2ccccc2)o1 [HTS hit 43, oxaprozin] | ≥ 75 | 1 ± 0.5 | ≤ 5 | 20.3 ± 5.2 |  |  |  |  | activity at 100 µM (SpnFADS FMNAT activity; [3]): 100 ± 15%; IC50 (SpnFADS RFK activity; SpnFADS, 25 °C): 14 ± 2 µM; activity at 100 µM (SpnFADS RFK activity; [4]): 32 ± 3%
11 | verteporfin [HTS hit 47] |  |  |  |  |  |  |  |  | Minimal inhibitory concentration (MIC) C. ammoniagenes ([1]; assayed 0.125–64 μM, 16 h at 37 °C, BHI): 2 to 4 µM; MIC ([2]; assayed 0.125–64 μM, 6 days at 37 °C, Middlebrook 7H9): 8 µM; MIC (S. pneumoniae ATCC 49619; assayed 0.125–64 μM, 10 h at 37 °C, BHI with 4% FBS): 4 µM
